In publication PMC6377466 (Proceedings of the National Academy of Sciences of the …, 2019):

Legend:
[1] = target: T1, HRAS^G12V (Homo sapiens, UniProt P01112, G12V); test: cell BRET RAS-effector interaction assay, dose response […]; type: cell-based
T1 construct: full-length (RLuc8 fusion); with CRAF

[2] = target: T2, NRAS^Q61H (Homo sapiens, UniProt P01111, Q61H); test: as above; type: cell-based
T2 construct: full-length (RLuc8 fusion); with CRAF

[3] = target: T3, KRAS166^G12V (Homo sapiens, UniProt P01116, G12V); test: SPR screen and waterLOGSY NMR; type: binding
T3 construct: gene KRAS; KRAS166

| Compound | cell BRET RAS-effector interaction assay, dose response 5-20 μM [1] | cell BRET RAS-effector interaction assay, dose response 5-20 μM [2] | SPR screen and waterLOGSY NMR [3] |
| --- | --- | --- | --- |
| COc1cccc(-c2ccc(Nc3ccc(CN(C)C)cc3)c(OC)c2F)c1 [Ch-3] | Ch-3 interferes with NRAS and HRAS isoforms using the BRET biosensor assay | Ch-3 interferes with NRAS and HRAS isoforms using the BRET biosensor assay | – |
| COc1cccc(-c2cccc(CC3(C(=O)NCCCn4ccnc4)CCOCC3)c2)c1 [PPIN-2] | – | – | PPIN-1 and -2 were confirmed to bind to KRAS166^G12V |
| CCCN1CCN(C(=O)c2c[nH]cn2)CC(Cc2ccc(-c3ccccc3)cc2)C1=O (stereo not shown) [PPIN-1] | – | – | PPIN-1 and -2 were confirmed to bind to KRAS166^G12V |
